Values of other authors, collected in patent US20200206223A1, “LIQUID DOSAGE FORMS OF IMATINIB” (FTF PHARMA PRIVATE LIMITED, priority 2017, published 2020).

Share of the AUC for Imatinib mesylate (main circulating active metabolite): about 15%
Elimination half-life (orally administered imatinib mesylate): ~40 h
Structure (SMILES): Cc1ccc(NC(=O)c2ccc(CN3CCNCC3)cc2)cc1Nc1nccc(-c2cccnc2)n1 [N-desmethyl derivative]
